These results are taken from ChEMBL document CHEMBL4265945, “Synthesis, biological evaluation and structure-activity relationship of a novel class of PI3Kα H1047R mutant inhibitors” (Eur J Med Chem, 2018).

One may read the IC50 as the concentration at which inhibition is half-maximal. The low end stands for greater potency, the high end for weaker potency. A word on the EC50: it is the concentration at which the effect is half-maximal. Lower therefore signals a more potent agent.

Experiment [1] concerns HCT-116. Put plainly: Induction of apoptosis in human HCT116 cells assessed as late apoptotic cells at 5 uM after 24 hrs by Annexin V-FITC/PI staining based flow cytometry (reference value: 2.35%). The experiment is classed as functional.
In experiment [2] the test system is HCT-116. Put plainly: Induction of autophagy in human HCT116 cells assessed as accumulation of GFP/mRFP-tagged LC3 accumulation in cytoplasm after 12 hrs by laser scanning confocal microscopic analysis. The experiment is classed as functional, cell-based.
Experiment [3] deals with HCT-116. Put plainly: Induction of autophagy in human HCT116 cells assessed as autophagic vacuole formation at 5 uM after 6 hrs by MDC staining based fluorescence microscopic analysis. Type of experiment: functional, cell-based.
Experiment [4] has as its system HCT-116. Put plainly: Induction of apoptosis in human HCT116 cells assessed as necrotic cells at 5 uM after 24 hrs by Annexin V-FITC/PI staining based flow cytometry (reference value: 0.39%). The experiment is classed as functional. On the technique in general: Flow cytometry measures light scatter and fluorescence of single cells or particles in a stream.
Experiment [5] relates to HCT-116. Put plainly: Induction of apoptosis in human HCT116 cells assessed as early apoptotic cells at 5 uM after 24 hrs by Annexin V-FITC/PI staining based flow cytometry (reference value: 4.07%). Type of experiment: functional.
Experiment [6] deals with HCT-116. Put plainly: Induction of apoptosis in human HCT116 cells assessed as viable cells at 5 uM after 24 hrs by Annexin V-FITC/PI staining based flow cytometry (reference value: 93%). The note with it: HCT-116, 24 h, read-out: Activity. Type of experiment: functional.
Experiment [7] deals with HCT-116. To be noted: Homo sapiens, HCT-116, 72 h.
Another experiment concerns MCF7. Put plainly: cells. The note with it: Homo sapiens, MCF7, 72 h.
Experiment [8] has as its target Phosphatidylinositol 4,5-bisphosphate 3-kinase catalytic subunit alpha isoform (Homo sapiens, UniProt P42336, H1047R). Put plainly: Inhibition of PI3Kalpha H1047R mutant (unknown origin) by HTRF assay. In general terms: TR-FRET usually uses a lanthanide donor and a delayed reading to cut background.
A short description of experiment [9]: Inhibition of mTORC1 (unknown origin) after 40 mins by kinase-Glo reagent based luminescence assay. The arrangement: species or system Homo sapiens. In general terms: Kinase-Glo measures the ATP left after a reaction by luminescence.
Experiment [10] concerns the target Phosphatidylinositol 4,5-bisphosphate 3-kinase catalytic subunit alpha isoform (Homo sapiens, UniProt P42336). Put plainly: Inhibition of wild type PI3Kalpha (unknown origin) after 40 mins by kinase-Glo reagent based luminescence assay.
Experiment [11] deals with Phosphatidylinositol 4,5-bisphosphate 3-kinase catalytic subunit beta isoform (Homo sapiens, UniProt P42338). Put plainly: Inhibition of PI3Kbeta (unknown origin) after 40 mins by kinase-Glo reagent based luminescence assay.
Experiment [12] concerns the target T1, Phosphatidylinositol 4,5-bisphosphate 3-kinase catalytic subunit delta isoform (Homo sapiens, UniProt O00329).
T1 sequence (O00329 whole entry): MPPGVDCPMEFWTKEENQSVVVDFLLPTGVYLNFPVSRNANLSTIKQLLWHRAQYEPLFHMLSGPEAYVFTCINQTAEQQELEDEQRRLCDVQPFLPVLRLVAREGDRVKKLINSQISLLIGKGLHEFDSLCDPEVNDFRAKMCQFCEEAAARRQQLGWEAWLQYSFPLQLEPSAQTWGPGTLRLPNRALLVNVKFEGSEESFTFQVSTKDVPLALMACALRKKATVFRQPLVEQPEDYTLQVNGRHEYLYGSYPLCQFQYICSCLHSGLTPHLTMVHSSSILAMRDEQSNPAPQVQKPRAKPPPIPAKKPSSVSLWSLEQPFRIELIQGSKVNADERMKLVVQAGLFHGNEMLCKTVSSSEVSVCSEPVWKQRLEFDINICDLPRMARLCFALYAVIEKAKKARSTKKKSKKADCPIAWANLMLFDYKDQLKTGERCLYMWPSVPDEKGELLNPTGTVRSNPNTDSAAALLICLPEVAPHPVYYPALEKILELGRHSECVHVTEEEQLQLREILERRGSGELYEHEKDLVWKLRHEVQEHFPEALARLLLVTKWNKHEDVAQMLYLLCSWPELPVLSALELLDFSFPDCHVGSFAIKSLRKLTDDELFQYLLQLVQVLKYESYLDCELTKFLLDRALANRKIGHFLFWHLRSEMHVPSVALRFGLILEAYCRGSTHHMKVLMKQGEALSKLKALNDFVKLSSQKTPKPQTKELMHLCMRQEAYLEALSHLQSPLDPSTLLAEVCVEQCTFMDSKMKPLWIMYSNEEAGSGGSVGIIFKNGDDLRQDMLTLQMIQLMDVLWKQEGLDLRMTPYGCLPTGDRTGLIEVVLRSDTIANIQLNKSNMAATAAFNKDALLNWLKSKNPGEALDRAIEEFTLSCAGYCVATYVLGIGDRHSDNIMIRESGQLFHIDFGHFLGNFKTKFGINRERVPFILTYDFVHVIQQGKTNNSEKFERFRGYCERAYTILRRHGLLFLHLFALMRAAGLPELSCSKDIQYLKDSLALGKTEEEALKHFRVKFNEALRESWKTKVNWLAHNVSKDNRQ
Put plainly: Inhibition of PI3Kdelta (unknown origin) after 40 mins by kinase-Glo reagent based luminescence assay.

The target of experiment [13] is Phosphatidylinositol 4,5-bisphosphate 3-kinase catalytic subunit gamma isoform (Homo sapiens, UniProt P48736). Put plainly: Inhibition of PI3Kgamma (unknown origin) after 40 mins by kinase-Glo reagent based luminescence assay.

The source made the active and inactive calls. The calls are words filed in the database; no cut-off is given here.

Phosphatidylinositol 4,5-bisphosphate 3-kinase catalytic subunit alpha isoform (Homo sapiens, UniProt P42336, H1047R), sequence (P42336 whole entry H1047R, canonical isoform): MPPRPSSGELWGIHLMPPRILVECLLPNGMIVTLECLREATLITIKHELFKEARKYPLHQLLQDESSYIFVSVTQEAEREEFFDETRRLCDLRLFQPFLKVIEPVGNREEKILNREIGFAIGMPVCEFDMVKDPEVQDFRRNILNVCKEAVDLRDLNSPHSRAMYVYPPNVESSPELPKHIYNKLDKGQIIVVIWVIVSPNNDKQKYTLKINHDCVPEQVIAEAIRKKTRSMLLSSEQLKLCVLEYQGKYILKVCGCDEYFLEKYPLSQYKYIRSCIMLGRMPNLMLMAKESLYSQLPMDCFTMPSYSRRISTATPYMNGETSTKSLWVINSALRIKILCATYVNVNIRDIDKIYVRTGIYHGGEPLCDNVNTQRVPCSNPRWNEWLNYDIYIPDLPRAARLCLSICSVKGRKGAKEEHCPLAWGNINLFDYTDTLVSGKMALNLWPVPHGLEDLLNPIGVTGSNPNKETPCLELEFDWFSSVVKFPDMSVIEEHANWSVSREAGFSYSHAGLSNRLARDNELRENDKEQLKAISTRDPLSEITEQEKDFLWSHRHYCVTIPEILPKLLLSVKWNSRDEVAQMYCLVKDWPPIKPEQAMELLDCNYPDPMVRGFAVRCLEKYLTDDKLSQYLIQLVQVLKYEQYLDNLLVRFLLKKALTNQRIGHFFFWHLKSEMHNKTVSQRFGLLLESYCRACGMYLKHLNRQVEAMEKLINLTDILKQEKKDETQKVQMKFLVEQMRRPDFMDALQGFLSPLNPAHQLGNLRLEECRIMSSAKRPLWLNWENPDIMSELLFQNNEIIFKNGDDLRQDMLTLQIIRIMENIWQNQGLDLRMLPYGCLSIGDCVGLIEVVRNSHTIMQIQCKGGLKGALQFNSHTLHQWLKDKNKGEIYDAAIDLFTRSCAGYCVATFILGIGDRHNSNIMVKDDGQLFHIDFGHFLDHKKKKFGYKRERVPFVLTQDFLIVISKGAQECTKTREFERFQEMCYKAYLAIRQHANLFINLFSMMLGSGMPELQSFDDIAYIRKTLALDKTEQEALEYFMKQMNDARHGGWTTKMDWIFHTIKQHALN
Phosphatidylinositol 4,5-bisphosphate 3-kinase catalytic subunit alpha isoform (Homo sapiens, UniProt P42336), sequence (P42336 whole entry, canonical isoform): as the sequence (P42336 whole entry H1047R, canonical isoform) above, with R1047H counted along it
Phosphatidylinositol 4,5-bisphosphate 3-kinase catalytic subunit gamma isoform, sequence (P48736 whole entry, canonical isoform): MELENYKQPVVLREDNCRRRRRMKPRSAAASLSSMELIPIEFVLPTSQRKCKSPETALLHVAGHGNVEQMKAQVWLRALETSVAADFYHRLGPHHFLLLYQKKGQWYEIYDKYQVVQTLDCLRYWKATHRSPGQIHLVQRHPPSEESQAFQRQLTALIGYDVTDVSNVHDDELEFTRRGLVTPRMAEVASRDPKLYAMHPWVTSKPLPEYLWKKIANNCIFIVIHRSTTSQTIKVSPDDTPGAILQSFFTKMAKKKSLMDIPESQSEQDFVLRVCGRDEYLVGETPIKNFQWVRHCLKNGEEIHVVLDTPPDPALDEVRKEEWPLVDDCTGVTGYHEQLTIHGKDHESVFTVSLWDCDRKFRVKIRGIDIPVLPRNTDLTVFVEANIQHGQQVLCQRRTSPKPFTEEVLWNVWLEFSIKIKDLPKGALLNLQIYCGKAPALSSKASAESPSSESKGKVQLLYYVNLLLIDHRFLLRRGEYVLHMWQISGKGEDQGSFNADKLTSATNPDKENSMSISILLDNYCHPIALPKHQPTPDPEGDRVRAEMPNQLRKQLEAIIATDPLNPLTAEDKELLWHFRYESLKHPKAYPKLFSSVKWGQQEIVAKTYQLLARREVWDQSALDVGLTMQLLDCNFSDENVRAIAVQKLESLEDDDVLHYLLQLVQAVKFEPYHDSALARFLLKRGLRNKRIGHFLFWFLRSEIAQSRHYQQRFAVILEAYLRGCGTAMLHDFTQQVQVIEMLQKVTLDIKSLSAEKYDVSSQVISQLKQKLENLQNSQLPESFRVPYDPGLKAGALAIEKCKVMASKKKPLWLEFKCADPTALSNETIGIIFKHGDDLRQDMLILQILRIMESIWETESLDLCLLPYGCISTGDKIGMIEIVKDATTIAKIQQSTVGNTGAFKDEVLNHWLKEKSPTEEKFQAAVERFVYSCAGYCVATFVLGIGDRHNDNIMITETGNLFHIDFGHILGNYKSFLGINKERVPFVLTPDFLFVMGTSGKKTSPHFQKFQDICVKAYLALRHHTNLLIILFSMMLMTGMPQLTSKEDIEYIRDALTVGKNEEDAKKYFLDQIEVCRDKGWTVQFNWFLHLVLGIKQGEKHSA
Phosphatidylinositol 4,5-bisphosphate 3-kinase catalytic subunit beta isoform, sequence (P42338 whole entry, canonical isoform): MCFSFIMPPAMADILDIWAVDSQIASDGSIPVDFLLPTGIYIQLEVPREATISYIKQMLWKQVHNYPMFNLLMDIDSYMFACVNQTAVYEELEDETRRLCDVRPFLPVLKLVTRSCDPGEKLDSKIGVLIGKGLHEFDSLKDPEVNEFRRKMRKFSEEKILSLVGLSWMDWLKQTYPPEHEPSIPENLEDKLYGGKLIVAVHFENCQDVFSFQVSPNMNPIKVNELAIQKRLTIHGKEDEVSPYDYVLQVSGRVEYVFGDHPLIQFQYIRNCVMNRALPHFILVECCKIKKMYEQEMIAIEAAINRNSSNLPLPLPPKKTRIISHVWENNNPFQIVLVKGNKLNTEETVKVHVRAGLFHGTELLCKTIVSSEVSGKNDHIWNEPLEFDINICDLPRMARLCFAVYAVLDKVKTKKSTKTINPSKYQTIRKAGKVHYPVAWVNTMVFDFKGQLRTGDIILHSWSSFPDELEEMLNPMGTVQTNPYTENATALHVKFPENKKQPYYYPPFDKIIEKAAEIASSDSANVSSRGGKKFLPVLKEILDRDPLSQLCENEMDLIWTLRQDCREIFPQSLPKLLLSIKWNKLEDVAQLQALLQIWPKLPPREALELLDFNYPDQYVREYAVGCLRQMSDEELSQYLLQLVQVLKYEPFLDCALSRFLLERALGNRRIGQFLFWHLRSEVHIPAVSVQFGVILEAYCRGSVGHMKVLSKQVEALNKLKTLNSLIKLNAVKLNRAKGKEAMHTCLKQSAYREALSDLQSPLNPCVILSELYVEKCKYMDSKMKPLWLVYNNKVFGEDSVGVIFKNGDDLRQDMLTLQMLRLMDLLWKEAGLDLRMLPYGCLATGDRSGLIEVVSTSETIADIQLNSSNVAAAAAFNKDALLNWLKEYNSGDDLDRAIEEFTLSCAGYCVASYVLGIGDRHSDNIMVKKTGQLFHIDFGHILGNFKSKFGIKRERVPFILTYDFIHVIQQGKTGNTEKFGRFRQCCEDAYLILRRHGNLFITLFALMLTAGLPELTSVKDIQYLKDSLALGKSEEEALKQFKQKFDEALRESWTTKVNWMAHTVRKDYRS
Description for MCF7: Antiproliferative activity against human MCF7 cells after 72 hrs by CCK-8 assay

`FC(F)c1nc2ccccc2n1-c1nc(N2CCOCC2)nc(N2CCOCC2)n1` [ZSTK-474]: the Activity is 1.29% in the experiment on HCT-116 [1], “Dose-dependent effect” in the experiment on HCT-116 [2], 0.2% with HCT-116 [4] and 5.6% in the experiment with HCT-116 [5]. The outcome with HCT-116 [3] was Active. Besides, in the experiment on HCT-116 [6], the viability at 5 µM came to 92%. Besides, the IC50 is 1.31 µM in the experiment on HCT-116 [7] and 5.27 µM in the experiment on MCF7.
In turn, `COc1ccc(CC(=O)c2ccc(O)c(O)c2O)cc1OC` registered an EC50 in [8] of 242 µM. The IC50 in the experiment on HCT-116 [7] and in the experiment with MCF7 was over 50 µM each time.
Take `O=C(Cc1ccc(F)cc1)c1ccc(O)c(O)c1O`: the EC50 in experiment [8] is 170 µM. The IC50 with HCT-116 [7] and in the experiment on MCF7 was over 50 µM in each case.
Take `Cn1c(=O)n(-c2ccc(C(C)(C)C#N)cc2)c2c3cc(-c4cnc5ccccc5c4)ccc3ncc21` [DACTOLISIB]: the concentration for a half-maximal effect (EC50) in experiment [9] was 0.079 µM.
In experiment [8], `O=C(Cc1ccccc1F)c1ccc(O)c(O)c1O` had an EC50 of over 500 µM. Also, the IC50 in the experiment with HCT-116 [7] and in the experiment with MCF7 was over 50 µM each time.
Regarding `O=C(Cc1ccc(Cl)cc1)c1ccc(O)c(O)c1O`, the values for the EC50 in experiment [8] and in [10] were 69.3 µM and 35.2 µM, respectively. In addition, the IC50 in the experiment with HCT-116 [7] and in the experiment with MCF7 was over 50 µM in each case.
`O=C(Cc1ccccc1Cl)c1ccc(O)c(O)c1O` came in with an EC50 in experiment [8] of over 500 µM. In addition, the IC50 in the experiment with HCT-116 [7] and in the experiment with MCF7 was over 50 µM throughout.
For `Oc1ccc(-c2n[nH]cc2-c2ccc(Cl)c(Cl)c2)c(O)c1O`, the EC50 in experiment [11] turned out to be 5.7 µM; in experiment [12] it was 19.1 µM; in experiment [13] it was 10 µM.
`O=C(Cc1cccc(Cl)c1)c1ccc(O)c(O)c1O` displayed an EC50 in [8] of 98.2 µM. The IC50 in the experiment with HCT-116 [7] and in the experiment with MCF7 was over 50 µM in each case.
`O=C(Cc1ccc(C(F)(F)F)cc1)c1ccc(O)c(O)c1O` gave an EC50 in experiment [8] of 58.4 µM. Moreover, the IC50 in the experiment on HCT-116 [7] and in the experiment on MCF7 was over 50 µM each time.
`O=C(Cc1ccc(F)c(Cl)c1)c1ccc(O)c(O)c1O` yielded an EC50 in [8] of 9.7 µM. The IC50 with HCT-116 [7] is 47.3 µM; in the experiment on MCF7 it was over 50 µM.
In experiment [8], `O=C(Cc1ccc(Cl)cc1)c1ccc(O)cc1O` showed an EC50 of 196 µM. Further, the IC50 in the experiment on HCT-116 [7] and in the experiment with MCF7 was over 50 µM each time.
Compound `O=C(Cc1ccc(Cl)cc1)c1cccc(O)c1O` showed an EC50 in experiment [8] of over 500 µM. The IC50 in the experiment with HCT-116 [7] and in the experiment with MCF7 was over 50 µM in each case.
`O=C(Cc1ccc(Cl)cc1)c1c(O)cc(O)cc1O`: the EC50 in [8] was found to be 115 µM; in experiment [10], 79.3 µM. Moreover, the IC50 with HCT-116 [7] and in the experiment on MCF7 was over 50 µM each time.
For the compound `O=C(Cc1ccc(Cl)c(Cl)c1)c1ccc(O)c(O)c1O`, the EC50 in experiment [8] was 8.9 µM. Also, the half-inhibitory concentration (IC50) was found to be 35.5 µM with HCT-116 [7] and 48.9 µM in the experiment with MCF7.
